Assay results: article PMC8855532 (Journal of the American Chemical Society, 2022)

Target: 40-residue Alzheimer’s β-amyloid peptide (Aβ40) fibrils (Homo sapiens, UniProt P05067)
Assay: HPLC titration of free/bound ligand on preformed fibrils
Format: binding

Sequence of 40-residue Alzheimer’s β-amyloid peptide (Aβ40) fibrils (P05067 672-711): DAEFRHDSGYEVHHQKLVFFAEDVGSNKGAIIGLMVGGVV

Kd: 1600 ± 200 nM
Structure (SMILES): CNc1ccc(-c2nc3ccc(O)cc3s2)cc1F [flutemetamol]
